Experimental findings from US20240383856A1 (Zedira GmbH, priority 2021, published 2024) are described below.

A short description of data set [1]: Caco-2 permeability assay (CacoReady kit). The note with it: human, Caco-2, Caco-2 barrier, CacoReady kit; above 1×10^−6 cm/s classified as permeable. The format is in vitro ADME. As to the method: Permeability coefficients (Papp values) were obtained from Caco-2 barrier studies predicting oral/intestinal bioavailability of the tested compounds. The assays were performed by using CacoReady™ ready-to-use kits from ReadyCell according to the manufacturers protocol.
A general note: Caco-2 monolayers are a common model of the intestinal barrier.

In data set [2] the target is T1, recombinant human transglutaminase 2 (Homo sapiens, UniProt P21980).
T1 construct: purchased Zedira T022
T1 sequence (P21980 1-687): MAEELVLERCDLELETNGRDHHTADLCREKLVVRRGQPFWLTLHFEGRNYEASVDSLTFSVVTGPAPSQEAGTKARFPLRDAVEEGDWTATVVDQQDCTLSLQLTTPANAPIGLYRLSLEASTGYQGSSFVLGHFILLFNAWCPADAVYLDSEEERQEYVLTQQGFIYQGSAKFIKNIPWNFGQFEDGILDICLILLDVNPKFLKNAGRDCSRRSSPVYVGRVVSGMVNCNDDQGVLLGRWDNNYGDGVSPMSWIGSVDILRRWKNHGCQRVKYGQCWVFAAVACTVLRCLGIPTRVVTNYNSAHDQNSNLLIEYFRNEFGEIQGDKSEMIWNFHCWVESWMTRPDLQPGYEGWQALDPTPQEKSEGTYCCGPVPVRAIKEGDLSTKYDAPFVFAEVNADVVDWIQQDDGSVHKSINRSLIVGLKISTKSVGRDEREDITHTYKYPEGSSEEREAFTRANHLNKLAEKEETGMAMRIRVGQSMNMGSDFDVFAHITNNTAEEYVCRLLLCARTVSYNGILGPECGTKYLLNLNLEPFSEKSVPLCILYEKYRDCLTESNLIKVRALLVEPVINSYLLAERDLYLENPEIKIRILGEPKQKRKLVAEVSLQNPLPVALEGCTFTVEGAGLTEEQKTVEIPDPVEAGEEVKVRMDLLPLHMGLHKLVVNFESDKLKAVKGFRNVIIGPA
Kind of data set: Transglutaminase assay (DCC-assay): incorporation of dansylcadaverine into dimethylcasein. The format is biochemical. The conditions noted are these: for IC50: recombinant human TG2 10 nM, dansylcadaverine incorporation into dimethylcasein, read-out: IC50 TG2. As to the method: To illustrate the advantage of branched alkyl moieties over aromatic moieties, we refer to reference compounds Ref. 2 (ZED1227, U.S. Pat. No. 9,434,763 B2) and Ref. 3 (A8, ZED1047). Inhibition data were determined using the classical fluorescent transamidation assay (dansylcadaverine incorporation into methylated casein, DCC-assay) as described [Buchold, C.; Hils, M.; Gerlach, U.; Weber, J.; Pelzer, C.; Heil, A.; Aeschlimann, D.; Pasternack, R. Features of ZED1227: The First-In-Class Tissue Transglutaminase Inhibitor Undergoing Clinical Evaluation for the Treatment of Celiac Disease. Cells 2022, 11, 1667. https://doi.org/10.3390/cells11101667]. Casein is one of the best known high molecular weight (24 kDa) protein substrates for transglutaminases. Please note, the IC50 value of Ref. 3 (A8) published in U.S. Pat. No. 9,434,763 B2 cannot be compared to the present data, relying on a fluorogenic isopeptidase assay.
To this extent, inhibition data were determined using the classical fluorescent transamidation assay (dansylcadaverine incorporation into methylated casein, DCC-assay) as described in Büchold et al. [Büchold, C.; Hils, M.; Gerlach, U.; Weber, J.; Pelzer, C.; Heil, A.; Aeschlimann, D.; Pasternack, R. Features of ZED1227: The First-In-Class Tissue Transglutaminase Inhibitor Undergoing Clinical Evaluation for the Treatment of Celiac Disease. Cells 2022, 11, 1667. https://doi.org/10.3390/cells11101667]. Casein is one of the best known high molecular weight (24 kDa) protein substrates for transglutaminases. Inhibition data of the inventive compounds was compared with inhibition of compounds disclosed in U.S. Pat. No. 9,434,763 B2, particularly, compound A8, which is denoted herein as Reference 3. It is noteworthy that the IC50 values of compounds A8 published in U.S. Pat. No. 9,434,763 B2 and E16 from U.S. Pat. No. 11,072,634 B2 cannot be compared to the present data, relying on a fluorogenic isopeptidase assay.
For the determination of potency of inhibitors against tissue transglutaminase, the incorporation of dansylcadaverine into dimethylcasein (Zedira product T036, Lorand et al., Anal Biochem, 1971, 44:221-31) was measured using recombinant human transglutaminase 2 (Zedira Product T022).
The tissue transglutaminase is diluted in buffer (50 mM Tris-HCl, 7.5 mM CaCl2), 150 mM NaCl, pH=7.4). The final concentration of TG2 in the assay is 10 nM.
A 10 mM inhibitor stock solution is prepared in DMSO, and from this a serial 1:2-fold dilution series is prepared also in DMSO. Each of the initial dilutions is subsequently diluted 1:50-fold with buffer (50 mM Tris-HCl, 7.5 mM CaCl2), 150 mM NaCl, pH=7.4) to yield the final working dilutions containing 2% (v/v) DMSO.
15 μl of inhibitor working dilution are added per well of a 96 well microtiter plate. As control, 15 μl of a 2% (v/v) DMSO solution prepared using the buffer mentioned above are added per well.
Immediately before starting the assay, 600 μl transglutaminase working solution are added to 11.4 ml assay buffer (50 mM Tris-HCl, 10 mM CaCl2), 10 mM glutathione, 2.5% glycerol, 16.7 µM dansylcadaverine, 4 uM N,N-dimethylcasein, 200 mM NaCl, pH=8.0). 285 μl of this reaction mix are added per well containing the inhibitor.
Increase in fluorescence is measured using λex=330 nm and λem=500 nm at 37° C. for 30 min. A slope of the increase in fluorescence between 20 and 30 min is calculated for determination of the IC50 value (inhibitor concentration at which 50% of the initial activity is blocked).
Analysis of enzymatic activity is performed by calculation of the slope of an increase in fluorescence intensity. IC50 values are calculated by plotting the enzymatic activity (as percentage from control containing 2% DMSO instead of inhibitor) against the inhibitor concentration. IC50 is defined as the inhibitor concentration blocking 50% of initial enzyme activity.

Data set [3] in a line: logD by shake flask method (octanol / PBS pH 7.4, HPLC). The note with it: octanol / PBS pH 7.4, shake flask. The format is physicochemical. As to the method: In order to classify the inventive compounds according to their lipophilicity, LogD values (distribution coefficient) were determined by means of the well-established shake flask method, measuring the partition of a compound between an octanol and phosphate-buffered saline (PBS, pH 7.4) by HPLC.
The LogD is pH dependent and is a “predictor” for in-vivo properties. LogD combines lipophilicity (intrinsic structural property of the molecule, logP) and ionizability (pKa). Compounds with a moderate lipophilicity (LogD values from 0 to 3) are usually advantaged for oral absorption, being in balance between solubility and permeability. However, sophisticated formulation of a compound might improve oral bioavailability for highly lipophilic compounds.

Each structure is given as a SMILES string.

Regarding `CNC(=O)C(=O)CC[C@H](NC(=O)c1cc2ccccc2s1)C(=O)Nc1cccn(CC(=O)NC2C3CC4CC(C3)CC2C4)c1=O` (stereo partly drawn), the Papp in data set [1] is 1 to 10 ×10⁻⁶ cm/s. Besides, in data set [2], the IC50 is less than 40 nM. In data set [3], this compound gave a logD of 3 to 5.
The corresponding values for `CNC(=O)C(=O)CC[C@H](NC(=O)c1cc2cc(Br)ccc2s1)C(=O)Nc1cccn(CC(=O)NC2C3CC4CC(C3)CC2C4)c1=O` (stereo partly drawn) are 1 to 10 ×10⁻⁶ cm/s, less than 40 nM and 3 to 5.
`CNC(=O)C(=O)CC[C@H](NC(=O)c1oc2ccccc2c1C)C(=O)Nc1cccn(CC(=O)NC23CC4CC5C2C[C@@H]2C[C@H]5C(C4)[C@H]3C2)c1=O` (stereo in doubt) [II-104, (S)-N1-(1-(2-(diamantane-1-amino)-2-oxoethyl)-2-oxo-1,2-dihydropyridin-3-yl)-N6-methyl-2-(3-methylbenzofuran-2-carboxamido)-5-oxohexanediamide] came in with a Papp in data set [1] of 1 to 10 ×10⁻⁶ cm/s. Also, the IC50 in data set [2] fell in the range of 40 to 400 nM. The compound further registered a logD in data set [3] of 1 to 3.
In the same order, the values of `CNC(=O)C(=O)CC[C@H](NC(=O)c1cc2ccccc2o1)C(=O)Nc1cccn(CC(=O)NC2C3CC4CC(C3)CC2C4)c1=O` (stereo partly drawn) [II-2, (S)-2-(benzofuran-2-carboxamido)-N1-(1-(2-(2-adamantylamino)-2-oxoethyl)-2-oxo-1,2-dihydropyridin-3-yl)-N6-methyl-5-oxohexanediamide] are 1 to 10 ×10⁻⁶ cm/s, less than 40 nM and 1 to 3.
In turn, `CNC(=O)C(=O)CC[C@H](NC(=O)c1oc2ccccc2c1Cl)C(=O)Nc1cccn(CC(=O)NC2C3CC4CC(C3)CC2C4)c1=O` (stereo partly drawn) [II-4, (S)-2-(3-chlorobenzofuran-2-carboxamido)-N1-(1-(2-(2-adamantylamino)-2-oxoethyl)-2-oxo-1,2-dihydropyridin-3-yl)-N6-methyl-5-oxohexanediamide] returned a Papp in data set [1] of 1 to 10 ×10⁻⁶ cm/s. In addition, the IC50 in data set [2] is less than 40 nM. Further, in data set [3], the logD was in the range of 1 to 3.
The corresponding values for `CNC(=O)C(=O)CC[C@H](NC(=O)c1cc2c(Br)cccc2o1)C(=O)Nc1cccn(CC(=O)NC2C3CC4CC(C3)CC2C4)c1=O` (stereo partly drawn) [II-5, (S)-2-(4-bromobenzofuran-2-carboxamido)-N1-(1-(2-(2-adamantylamino)-2-oxoethyl)-2-oxo-1,2-dihydropyridin-3-yl)-N6-methyl-5-oxohexanediamide] are 1 to 10 ×10⁻⁶ cm/s, less than 40 nM and 3 to 5.
In the same order, the values of `CNC(=O)C(=O)CC[C@H](NC(=O)c1cc2ccccc2[nH]1)C(=O)Nc1cccn(CC(=O)NC2C3CC4CC(C3)CC2C4)c1=O` (stereo partly drawn) [II-9, (S)-2-(1H-indole-2-carboxamido)-N1-(1-(2-(2-adamantylamino)-2-oxoethyl)-2-oxo-1,2-dihydropyridin-3-yl)-N6-methyl-5-oxohexanediamide] are 1 to 10 ×10⁻⁶ cm/s, less than 40 nM and 1 to 3.
The corresponding values for `CNC(=O)C(=O)CC[C@H](NC(=O)c1cc2c(F)c(F)ccc2[nH]1)C(=O)Nc1cccn(CC(=O)NC2C3CC4CC(C3)CC2C4)c1=O` (stereo partly drawn) [II-10, (S)-2-(4,5-difluoro-1H-indole-2-carboxamido)-N1-(1-(2-(2-adamantylamino)-2-oxoethyl)-2-oxo-1,2-dihydropyridin-3-yl)-N6-methyl-5-oxohexanediamide] are less than 1 ×10⁻⁶ cm/s, less than 40 nM and 3 to 5.
Take `CNC(=O)C(=O)CC[C@H](NC(=O)c1[nH]c2ccccc2c1C)C(=O)Nc1cccn(CC(=O)NC2C3CC4CC(C3)CC2C4)c1=O` (stereo partly drawn) [II-11, (S)-N1-(1-(2-(2-adamantylamino)-2-oxoethyl)-2-oxo-1,2-dihydropyridin-3-yl)-N6-methyl-2-(3-methyl-1H-indole-2-carboxamido)-5-oxohexanediamide]: the Papp in data set [1] was 1 to 10 ×10⁻⁶ cm/s. In addition, in data set [2], the IC50 was less than 40 nM. In addition, the logD in data set [3] was in the range of 1 to 3.
In data set [1], `CNC(=O)C(=O)CC[C@H](NC(=O)c1nc2ccccc2[nH]1)C(=O)Nc1cccn(CC(=O)NC2C3CC4CC(C3)CC2C4)c1=O` (stereo partly drawn) [II-12, (S)-2-(1H-benzo[d]imidazole-2-carboxamido)-N1-(1-(2-(2-adamantylamino)-2-oxoethyl)-2-oxo-1,2-dihydropyridin-3-yl)-N6-methyl-5-oxohexanediamide] showed a Papp of less than 1 ×10⁻⁶ cm/s. For the same compound, in data set [2], the IC50 fell in the range of 40 to 400 nM. Further, the logD in data set [3] lay in the range of 3 to 5.
In the same order, the values of `CNC(=O)C(=O)CC[C@H](NC(=O)C1Cc2ccccc2C1)C(=O)Nc1cccn(CC(=O)NC2C3CC4CC(C3)CC2C4)c1=O` (stereo partly drawn) [II-13, (S)-2-(2,3-dihydro-1H-indene-2-carboxamido)-N1-(1-(2-(2-adamantylamino)-2-oxoethyl)-2-oxo-1,2-dihydropyridin-3-yl)-N6-methyl-5-oxohexanediamide] are 1 to 10 ×10⁻⁶ cm/s, less than 40 nM and 1 to 3.
`CNC(=O)C(=O)CC[C@H](NC(=O)c1cn[nH]n1)C(=O)Nc1cccn(CC(=O)NC2C3CC4CC(C3)CC2C4)c1=O` (stereo partly drawn) [II-132, (S)-N1-(1-(2-(2-adamantylamino)-2-oxoethyl)-2-oxo-1,2-dihydropyridin-3-yl)-N6-methyl-5-oxo-2-(1H-1,2,3-triazole-4-carboxamido)hexanediamide]: in data set [2], the 50% inhibitory concentration (IC50) is 400 to 2500 nM.
As to `CCC(CC)CNC(=O)Cn1cccc(NC(=O)[C@H](CC/C=C/C(=O)OC)NC(=O)c2cncn2C)c1=O` [Ref. 2, reference compound], the “fold more potent compared to Ref. 3” value in data set [2] (DCC-assay, IC50 ratio versus Ref. 3 (A8)) stood at 80 fold. Further, the IC50 in data set [2] was in the range of 40 to 400 nM.

For orientation: Papp means a coefficient for how fast a substance crosses the barrier. Lower therefore signals poor permeation. As a reminder, the IC50 is the midpoint of a concentration-inhibition curve. As a reminder, the logD is the decadic logarithm of the distribution of all forms, ionised or not, between an organic phase and buffer at a given pH. Low readings indicate a more hydrophilic compound, high ones a more lipophilic compound.
